# Measured values: PMC3465710 (Biochemistry, 2011)
# Values joined by “and” are separate entries in the source; they are usually repeats but may differ in a detail not shown here. Equal values may be shown once. Read-outs that look alike come from different tables or passages of the source.
# Tests used:
# GLUT1 [1] = molecular target: T1, GLUT1 (Homo sapiens, UniProt P11166); type: binding; details: for β (cooperativity parameter, second inhibitor molecule) / γ (hetero-cooperativity parameter) / Inhibition (type of modulation of CB binding) / Ki: 50 nM [3H]-CB; for β (cooperativity parameter, second inhibitor molecule) / γ (hetero-cooperativity parameter): eqn 6; for Inhibition (type of modulation of CB binding): competing ligand 0 to 100 μM; for ΔG°: calculated as RT ln(1/KI); for β*γ: product; for α (homo-cooperativity factor): CB inhibition of [3H]-CB binding
# T1 sequence (P11166 1-492): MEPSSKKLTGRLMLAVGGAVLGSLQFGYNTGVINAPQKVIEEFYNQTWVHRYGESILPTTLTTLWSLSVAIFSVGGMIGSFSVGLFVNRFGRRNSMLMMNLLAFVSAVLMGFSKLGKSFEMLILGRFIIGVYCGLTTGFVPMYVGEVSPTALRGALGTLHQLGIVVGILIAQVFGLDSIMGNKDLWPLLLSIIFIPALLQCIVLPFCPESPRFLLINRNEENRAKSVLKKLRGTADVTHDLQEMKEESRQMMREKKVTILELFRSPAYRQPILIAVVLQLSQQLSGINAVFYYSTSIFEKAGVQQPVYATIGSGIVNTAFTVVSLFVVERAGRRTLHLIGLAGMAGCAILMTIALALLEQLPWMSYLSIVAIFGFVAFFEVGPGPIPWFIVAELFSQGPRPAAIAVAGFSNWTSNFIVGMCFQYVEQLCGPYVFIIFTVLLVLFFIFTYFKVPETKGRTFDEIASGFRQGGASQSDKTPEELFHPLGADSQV
# [2] = test system: [3H]-CB binding to red cell membranes; details: cited from earlier work
# [3] = molecular target: T2, GLUT1-mediated sugar transport in red cells (Homo sapiens, UniProt P11166); assay: Zero-trans 3-O-methylglucose uptake in red cells; type: cell-based
# T2 sequence (P11166 1-492): T1 sequence (P11166 1-492)
# [4] = molecular target: T2, GLUT1-mediated sugar transport in red cells; assay: Equilibrium exchange 3-O-methylglucose uptake in red cells; type: cell-based
# GLUT1 [5] = molecular target: T1, GLUT1
# GLUT1 [6] = molecular target: T1, GLUT1; assay: biochemical
# GLUT1 [7] = molecular target: T1, GLUT1; details: 4°C; cited from earlier work
# [8] = Ki (affinity of unoccupied GLUT1 for ligand), 4°C, eqn 6, iterative free [I]
# [9] = Ki, eqn 6, values in text or legends
structure (smiles),measurement,setting,value
"C[C@H]1C/C=C/[C@H]2[C@@H]3O[C@]3(C)[C@@H](C)[C@H]3[C@H](Cc4ccccc4)NC(=O)[C@]32OC(=O)O/C=C/[C@@](C)(O)C1=O [CCE, Cytochalasin E]","β (cooperativity parameter, second inhibitor molecule)",GLUT1 [1]; 4°C,7917 ± 2935
same,γ (hetero-cooperativity parameter),GLUT1 [1]; 4°C,0.555 ± 0.016
same,Inhibition (type of modulation of CB binding),GLUT1 [1],3
same,Kd,"GLUT1 [1]; KL (Table 2, taken from Table 1), cytochalasins, rounded values",100 nM
same,Ki,GLUT1 [1]; [8],99 ± 8 nM
same,Ki,GLUT1 [1]; [9],100 nM
same,ΔG°,GLUT1 [1],-8.88 kcal/mol
same,ΔΔG°,GLUT1 [1]; change in ΔG° relative to baseline cytochalasin or forskolin,0.01 kcal/mol
same,β*γ,GLUT1 [1],4394
same,Ki,"[2]; read-out: Ki(app) for inhibition of [3H]-CB binding, red cell membranes",≥ 100000 nM
"C=C[C@@]1(C)CC(=O)[C@]2(O)[C@@]3(C)[C@@H](O)CCC(C)(C)[C@@H]3[C@H](O)[C@H](OC(C)=O)[C@@]2(C)O1 [FSK, forskolin]","β (cooperativity parameter, second inhibitor molecule)",GLUT1 [1]; 4°C,1.54 ± 0.73
same,γ (hetero-cooperativity parameter),GLUT1 [1]; 4°C,0.93 ± 0.10 and 0.930 ± 0.103 and 0.9
same,γ (hetero-cooperativity parameter),"GLUT1 [1]; 4°C, listed as forskolin",0.93
same,Inhibition (type of modulation of CB binding),GLUT1 [1],1
same,Ki,GLUT1 [1]; [8],3280 ± 960 nM
same,Ki,GLUT1 [1]; [9],3280 ± 980 nM
same,ΔG°,GLUT1 [1],-6.95 kcal/mol
same,β*γ,GLUT1 [1],1
same,Ki,[3],1900 ± 400 nM
same,mode of inhibition of net sugar uptake,[3]; human erythrocytes,noncompetitive inhibitor
same,Kmapp for 3MG uptake in presence of inhibitor,"[3]; zero-trans, 2 μM FSK",1.09 ± 0.15 mM
same,Vmax for 3MG uptake in presence of inhibitor,"[3]; zero-trans, 2 μM FSK",0.055 ± 0.004 mM/L/min
same,Ki,[4],1200 ± 600 nM
same,Kmapp for 3MG uptake in presence of inhibitor,"[4]; equilibrium exchange, 2 μM FSK",48.5 ± 7.3 mM
same,Vmax for 3MG uptake in presence of inhibitor,"[4]; equilibrium exchange, 2 μM FSK",8.3 ± 0.7 mM/L/min
same,mode of inhibition of exchange sugar uptake,[4]; human erythrocytes,competitive inhibitor
same,Kd for forskolin binding relative to Kd for CB binding,GLUT1 [5],at least 20 fold
same,α (homo-cooperativity factor),"GLUT1 [5]; FSK inhibition of [3H]-FSK binding, 4°C",2.43 ± 0.23
same,α,GLUT1 [5]; fit versus measured free FSK,2.400 ± 0.212
same,α,GLUT1 [5]; fit versus simulated free FSK,2.434 ± 0.235
same,α,GLUT1 [5]; fit versus total FSK,2.383 ± 2.116
same,Kd,"GLUT1 [6]; KL, FSK inhibition of [3H]-FSK binding (50 nM), 4°C, eqn 7, assumes α = β = γ",2750 ± 787 nM
same,Kd,"GLUT1 [6]; Kl, fit versus measured free FSK",2830 ± 754 nM
same,Kd,"GLUT1 [6]; Kl, fit versus total FSK",3330 ± 893 nM
"C=C1[C@@H](C)[C@H]2[C@H](Cc3ccccc3)NC(=O)[C@]23OC(=O)/C=C/[C@H](O)CCC[C@@H](C)C/C=C/[C@H]3[C@@H]1O [CCB, Cytochalasin B]","β (cooperativity parameter, second inhibitor molecule)",GLUT1 [1]; 4°C,6.284 ± 3.849
same,γ (hetero-cooperativity parameter),GLUT1 [1]; 4°C,6.284 ± 3.849
same,"β (cooperativity parameter, second inhibitor molecule)","GLUT1 [1]; 4°C, listed as CB",6.3
same,γ (hetero-cooperativity parameter),"GLUT1 [1]; 4°C, listed as CB",6.3
same,Inhibition (type of modulation of CB binding),GLUT1 [1],1
same,α (homo-cooperativity factor),GLUT1 [1]; 4°C,6.284 ±3.849
same,α (homo-cooperativity factor),"GLUT1 [1]; 4°C, listed as CB",6.284 ± 0.558
same,ΔG°,GLUT1 [1],-8.88 kcal/mol
same,α,GLUT1 [1]; fit versus measured free CB,5.441 ± 0.558
same,α,GLUT1 [1]; fit versus simulated free CB,7.01 ± 0.53
same,α,GLUT1 [1]; fit versus total CB,10.0 ± 1.0
same,β*γ,GLUT1 [1],39
same,inhibition of CB binding,[2],high affinity
same,time constant of binding to GLUT1,GLUT1 [7],1 s
